Assay results: US9322066B2, “Predictors for cancer treatment” (priority 2011, dated 2016)

Test system: relapsed or refractory, rituximab-naive or -sensitive follicular B-cell NHL
Experiment: Time to next anti-lymphoma therapy, Vc-R vs rituximab study, by biomarker
Assay type: in vivo, human
Parameters: Median, Time to Next Anti-Lymphoma Therapy / Time to Next Anti-Lymphoma Therapy, Median: unit not given here
Description: Non-Hodgkin lymphoma (NHL) encompasses several unique malignant lymphoid disease entities that vary in clinical behavior, morphologic appearance, immunologic, and molecular phenotype. […] A randomized, open-label, active-controlled, multicenter, multinational, prospective study to compare the efficacy and safety of the combination of bortezomib and rituximab (Vc-R) to single-agent rituximab in subjects who have relapsed or refractory, rituximab-naive or -sensitive follicular B-cell NHL was performed.
Subjects were centrally randomized to Treatment Groups A (Vc-R) or B (rituximab) in a 1:1 ratio taking into account the following stratification factors: • Follicular Lymphoma International Prognostic Index (FLIPI) score (low [0 or 1 factor], intermediate [2 factors], high [≧3 factors]); • Prior rituximab therapy (yes, no); • Time since last dose of anti-lymphoma therapy (≦1 year, >1 year); • Region (United States/Canada, European Union, Rest of World).
The following clinical endpoints were included in the analysis within each treatment group and an overall comparison was made with the biomarker-related endpoints: Progression-free survival, defined as the interval between the date of randomization and the date of progressive disease (PD) or death, whichever is first reported in the ITT population; overall survival; overall response rate (complete response [CR]+CR unconfirmed [CRu]+partial response [PR]); overall CR rate (CR+CRu); duration of response; time to next anti-lymphoma therapy; and treatment free interval.

[1] = PSMB1/A171S: G/G, >1 year since last anti-lymphoma treatment
[2] = PSMB1/A171S: G/G, Ann Arbor Stage IV
[3] = PSMB1/A171S: G/G, European Union
[4] = PSMB1/A171S: G/G, High Tumor Burden
[5] = PSMB1/A171S: G/G, ≦65 years old
[6] = PSMB1/I208N: T/T, >1 year since last anti-lymphoma treatment
[7] = PSMB1/I208N: T/T, Ann Arbor Stage IV
[8] = PSMB1/I208N: T/T, European Union
[9] = PSMB1/I208N: T/T, High Tumor Burden
[10] = PSMB1/I208N: T/T, ≦65 years old
[11] = PSMB1/P11A: C/G, European Union
[12] = PSMB1/P11A: C/G, High Tumor Burden
[13] = PSMB1/P11A: G/G, >1 year since last anti-lymphoma treatment
[14] = PSMB1/P193L: C/C, >1 year since last anti-lymphoma treatment
[15] = PSMB1/P193L: C/C, Ann Arbor Stage IV
[16] = PSMB1/P193L: C/C, European Union
[17] = PSMB1/P193L: C/C, High Tumor Burden
[18] = PSMB1/P193L: C/C, ≦65 years old
[19] = PSMB2/E49X: G/G, >1 year since last anti-lymphoma treatment
[20] = PSMB2/E49X: G/G, Ann Arbor Stage IV
[21] = PSMB2/E49X: G/G, European Union
[22] = PSMB2/E49X: G/G, High Tumor Burden
[23] = PSMB2/G187V: G/G, >1 year since last anti-lymphoma treatment
[24] = PSMB2/G187V: G/G, Ann Arbor Stage IV
[25] = PSMB2/G187V: G/G, European Union
[26] = PSMB2/G187V: G/G, High Tumor Burden
[27] = PSMB2/G187V: G/G, ≦65 years old
[28] = PSMB2/L159F: C/C, >1 year since last anti-lymphoma treatment
[29] = PSMB2/L159F: C/C, Ann Arbor Stage IV
[30] = PSMB2/L159F: C/C, European Union
[31] = PSMB2/L159F: C/C, High Tumor Burden
[32] = PSMB2/L159F: C/C, ≦65 years old
[33] = PSMB5/L206M: C/C, >1 year since last anti-lymphoma treatment
[34] = PSMB5/L206M: C/C, Ann Arbor Stage IV

## rituximab
P65 INTENSITY CYTOPLASMIC SIGNAL: ≧2+, ≦65 years old, IRC Review
  Median, Time to Next Anti-Lymphoma Therapy: 484
[1]
  Time to Next Anti-Lymphoma Therapy, Evt/N: 98/165
  Time to Next Anti-Lymphoma Therapy, Median: 688
[2]
  Time to Next Anti-Lymphoma Therapy, Evt/N: 86/127
  Time to Next Anti-Lymphoma Therapy, Median: 457
[3]
  Time to Next Anti-Lymphoma Therapy, Evt/N: 75/119
  Time to Next Anti-Lymphoma Therapy, Median: 675
[4]
  Time to Next Anti-Lymphoma Therapy, Evt/N: 108/147
  Time to Next Anti-Lymphoma Therapy, Median: 396
[5]
  Time to Next Anti-Lymphoma Therapy, Evt/N: 130/198
  Time to Next Anti-Lymphoma Therapy, Median: 489
[6]
  Time to Next Anti-Lymphoma Therapy, Evt/N: 98/165
  Time to Next Anti-Lymphoma Therapy, Median: 688
[7]
  Time to Next Anti-Lymphoma Therapy, Evt/N: 86/127
  Time to Next Anti-Lymphoma Therapy, Median: 457
[8]
  Time to Next Anti-Lymphoma Therapy, Evt/N: 75/119
  Time to Next Anti-Lymphoma Therapy, Median: 675
[9]
  Time to Next Anti-Lymphoma Therapy, Evt/N: 108/147
  Time to Next Anti-Lymphoma Therapy, Median: 396
PSMB1/I208N: T/T, No Subgroup
  Time to Next Anti-Lymphoma Therapy, Evt/N: 173/276
  Time to Next Anti-Lymphoma Therapy, Median: 546
[10]
  Time to Next Anti-Lymphoma Therapy, Evt/N: 130/198
  Time to Next Anti-Lymphoma Therapy, Median: 489
[11]
  Time to Next Anti-Lymphoma Therapy, Evt/N: 34/49
  Time to Next Anti-Lymphoma Therapy, Median: 462
PSMB1/P11A: C/G, Female
  Time to Next Anti-Lymphoma Therapy, Evt/N: 42/75
  Time to Next Anti-Lymphoma Therapy, Median: 546
[12]
  Time to Next Anti-Lymphoma Therapy, Evt/N: 49/72
  Time to Next Anti-Lymphoma Therapy, Median: 358
PSMB1/P11A: C/G, No Subgroup
  Time to Next Anti-Lymphoma Therapy, Evt/N: 78/127
  Time to Next Anti-Lymphoma Therapy, Median: 550
PSMB1/P11A: C/G, Other
  Time to Next Anti-Lymphoma Therapy, Evt/N: 2/3
  Time to Next Anti-Lymphoma Therapy, Median: 164
PSMB1/P11A: C/G, White
  Time to Next Anti-Lymphoma Therapy, Evt/N: 67/111
  Time to Next Anti-Lymphoma Therapy, Median: 581
PSMB1/P11A: C/G, ≦65 years old
  Time to Next Anti-Lymphoma Therapy, Evt/N: 63/96
  Time to Next Anti-Lymphoma Therapy, Median: 546
[13]
  Time to Next Anti-Lymphoma Therapy, Evt/N: 17/20
  Time to Next Anti-Lymphoma Therapy, Median: 429
PSMB1/P11A: G/G, Male
  Time to Next Anti-Lymphoma Therapy, Evt/N: 17/19
  Time to Next Anti-Lymphoma Therapy, Median: 421
PSMB1/P11A: G/G, No Subgroup
  Time to Next Anti-Lymphoma Therapy, Evt/N: 30/37
  Time to Next Anti-Lymphoma Therapy, Median: 436
PSMB1/P11A: G/G, White
  Time to Next Anti-Lymphoma Therapy, Evt/N: 27/32
  Time to Next Anti-Lymphoma Therapy, Median: 421
PSMB1/P11A: G/G, ≦65 years old
  Time to Next Anti-Lymphoma Therapy, Evt/N: 21/25
  Time to Next Anti-Lymphoma Therapy, Median: 409
[14]
  Time to Next Anti-Lymphoma Therapy, Evt/N: 98/165
  Time to Next Anti-Lymphoma Therapy, Median: 688
[15]
  Time to Next Anti-Lymphoma Therapy, Evt/N: 86/127
  Time to Next Anti-Lymphoma Therapy, Median: 457
[16]
  Time to Next Anti-Lymphoma Therapy, Evt/N: 75/119
  Time to Next Anti-Lymphoma Therapy, Median: 675
[17]
  Time to Next Anti-Lymphoma Therapy, Evt/N: 108/147
  Time to Next Anti-Lymphoma Therapy, Median: 396
PSMB1/P193L: C/C, No Subgroup
  Time to Next Anti-Lymphoma Therapy, Evt/N: 173/276
  Time to Next Anti-Lymphoma Therapy, Median: 546
[18]
  Time to Next Anti-Lymphoma Therapy, Evt/N: 130/198
  Time to Next Anti-Lymphoma Therapy, Median: 489
[19]
  Time to Next Anti-Lymphoma Therapy, Evt/N: 98/165
  Time to Next Anti-Lymphoma Therapy, Median: 688
[20]
  Time to Next Anti-Lymphoma Therapy, Evt/N: 86/127
  Time to Next Anti-Lymphoma Therapy, Median: 457
[21]
  Time to Next Anti-Lymphoma Therapy, Evt/N: 75/119
  Time to Next Anti-Lymphoma Therapy, Median: 675
[22]
  Time to Next Anti-Lymphoma Therapy, Evt/N: 108/147
  Time to Next Anti-Lymphoma Therapy, Median: 396
PSMB2/E49X: G/G, No Subgroup
  Time to Next Anti-Lymphoma Therapy, Evt/N: 173/276
  Time to Next Anti-Lymphoma Therapy, Median: 546
PSMB2/E49X: G/G, ≦65 years old
  Time to Next Anti-Lymphoma Therapy, Evt/N: 130/198
  Time to Next Anti-Lymphoma Therapy, Median: 489
[23]
  Time to Next Anti-Lymphoma Therapy, Evt/N: 98/165
  Time to Next Anti-Lymphoma Therapy, Median: 688
[24]
  Time to Next Anti-Lymphoma Therapy, Evt/N: 86/127
  Time to Next Anti-Lymphoma Therapy, Median: 457
[25]
  Time to Next Anti-Lymphoma Therapy, Evt/N: 75/119
  Time to Next Anti-Lymphoma Therapy, Median: 675
[26]
  Time to Next Anti-Lymphoma Therapy, Evt/N: 108/147
  Time to Next Anti-Lymphoma Therapy, Median: 396
PSMB2/G187V: G/G, No Subgroup
  Time to Next Anti-Lymphoma Therapy, Evt/N: 173/276
  Time to Next Anti-Lymphoma Therapy, Median: 546
[27]
  Time to Next Anti-Lymphoma Therapy, Evt/N: 130/198
  Time to Next Anti-Lymphoma Therapy, Median: 489
[28]
  Time to Next Anti-Lymphoma Therapy, Evt/N: 98/165
  Time to Next Anti-Lymphoma Therapy, Median: 688
[29]
  Time to Next Anti-Lymphoma Therapy, Evt/N: 86/127
  Time to Next Anti-Lymphoma Therapy, Median: 457
[30]
  Time to Next Anti-Lymphoma Therapy, Evt/N: 75/119
  Time to Next Anti-Lymphoma Therapy, Median: 675
[31]
  Time to Next Anti-Lymphoma Therapy, Evt/N: 108/147
  Time to Next Anti-Lymphoma Therapy, Median: 396
PSMB2/L159F: C/C, No Subgroup
  Time to Next Anti-Lymphoma Therapy, Evt/N: 173/276
  Time to Next Anti-Lymphoma Therapy, Median: 546
[32]
  Time to Next Anti-Lymphoma Therapy, Evt/N: 130/198
  Time to Next Anti-Lymphoma Therapy, Median: 489
[33]
  Time to Next Anti-Lymphoma Therapy, Evt/N: 98/165
  Time to Next Anti-Lymphoma Therapy, Median: 688
[34]
  Time to Next Anti-Lymphoma Therapy, Evt/N: 86/127
  Time to Next Anti-Lymphoma Therapy, Median: 457
PSMB5/L206M: C/C, European Union
  Time to Next Anti-Lymphoma Therapy, Evt/N: 75/119
